Assay results from patent publication US20180110754A1, “CENICRIVIROC FOR THE TREATMENT OF FIBROSIS” (Tobira Therapeutics, Inc., priority 2015, published 2018).

Assay: Study 202: fasting metabolic laboratory parameters
Format: in vivo
Excerpt: All abnormalities in total cholesterol, LDL cholesterol, triglycerides, or glucose were Grade 1 or Grade 2.
Mean baseline values and changes from baseline in HbA1c, HOMA-IR, fasting LDL, fasting HDL, fasting total cholesterol, fasting total cholesterol/HDL ratio, and fasting triglycerides are shown in Table 36.

[1] = All CVC (N = 115), EFV (N = 28), through Week 48
[2] = CVC 100 mg (N = 58), through Week 48
[3] = CVC 200 mg (N = 57), through Week 48

SMILES: CCCCOCCOc1ccc(-c2ccc3c(c2)/C=C(/C(=O)Nc2ccc([S@@+]([O-])Cc4cncn4CCC)cc2)CCCN3CC(C)C)cc1 [CVC, (S)-8-[4-(2-Butoxyethoxy)phenyl]-1-isobutyl-N-(4-{[(1-propyl-1H-imidazol-5-yl)methyl]sulfinyl}phenyl)-1,2,3,4-tetrahydro-1-benzazocine-5-carboxamide]
- Any graded (Grade 1-4) fasting laboratory abnormality, n subjects [1]: 16
- Fasting LDL cholesterol abnormality, any grade, n subjects [1]: 6
- Fasting LDL cholesterol, worst Grade 1, n subjects [1]: 3
- Fasting LDL cholesterol, worst Grade 2, n subjects [1]: 3
- Fasting LDL cholesterol, worst Grade 3, n subjects [1]: 0
- Fasting LDL cholesterol, worst Grade 4, n subjects [1]: 0
- Fasting glucose (serum, high) abnormality, any grade, n subjects [1]: 5
- Fasting glucose (serum, high), worst Grade 1, n subjects [1]: 3
- Fasting glucose (serum, high), worst Grade 2, n subjects [1]: 2
- Fasting glucose (serum, high), worst Grade 3, n subjects [1]: 0
- Fasting glucose (serum, high), worst Grade 4, n subjects [1]: 0
- Fasting laboratory abnormality, worst Grade 1, n subjects [1]: 9
- Fasting laboratory abnormality, worst Grade 2, n subjects [1]: 7
- Fasting laboratory abnormality, worst Grade 3, n subjects [1]: 0
- Fasting laboratory abnormality, worst Grade 4, n subjects [1]: 0
- Fasting total cholesterol abnormality, any grade, n subjects [1]: 8
- Fasting total cholesterol, worst Grade 1, n subjects [1]: 5
- Fasting total cholesterol, worst Grade 2, n subjects [1]: 3
- Fasting total cholesterol, worst Grade 3, n subjects [1]: 0
- Fasting total cholesterol, worst Grade 4, n subjects [1]: 0
- Fasting triglycerides abnormality, any grade, n subjects [1]: 1
- Fasting triglycerides, worst Grade 1, n subjects [1]: 0
- Fasting triglycerides, worst Grade 2, n subjects [1]: 1
- Fasting triglycerides, worst Grade 3, n subjects [1]: 0
- Fasting triglycerides, worst Grade 4, n subjects [1]: 0
- Any graded (Grade 1-4) fasting laboratory abnormality, n subjects [2]: 4 (7%)
- Fasting LDL cholesterol abnormality, any grade, n subjects [2]: 2 (3%)
- Fasting LDL cholesterol, worst Grade 1, n subjects [2]: 1 (2%)
- Fasting LDL cholesterol, worst Grade 2, n subjects [2]: 1 (2%)
- Fasting LDL cholesterol, worst Grade 3, n subjects [2]: 0
- Fasting LDL cholesterol, worst Grade 4, n subjects [2]: 0
- Fasting glucose (serum, high) abnormality, any grade, n subjects [2]: 0
- Fasting glucose (serum, high), worst Grade 1, n subjects [2]: 0
- Fasting glucose (serum, high), worst Grade 2, n subjects [2]: 0
- Fasting glucose (serum, high), worst Grade 3, n subjects [2]: 0
- Fasting glucose (serum, high), worst Grade 4, n subjects [2]: 0
- Fasting laboratory abnormality, worst Grade 1, n subjects [2]: 3 (5%)
- Fasting laboratory abnormality, worst Grade 2, n subjects [2]: 1 (2%)
- Fasting laboratory abnormality, worst Grade 3, n subjects [2]: 0
- Fasting laboratory abnormality, worst Grade 4, n subjects [2]: 0
- Fasting total cholesterol abnormality, any grade, n subjects [2]: 3 (5%)
- Fasting total cholesterol, worst Grade 1, n subjects [2]: 3 (5%)
- Fasting total cholesterol, worst Grade 2, n subjects [2]: 0
- Fasting total cholesterol, worst Grade 3, n subjects [2]: 0
- Fasting total cholesterol, worst Grade 4, n subjects [2]: 0
- Fasting triglycerides abnormality, any grade, n subjects [2]: 0
- Fasting triglycerides, worst Grade 1, n subjects [2]: 0
- Fasting triglycerides, worst Grade 2, n subjects [2]: 0
- Fasting triglycerides, worst Grade 3, n subjects [2]: 0
- Fasting triglycerides, worst Grade 4, n subjects [2]: 0
- Any graded (Grade 1-4) fasting laboratory abnormality, n subjects [3]: 12
- Fasting LDL cholesterol abnormality, any grade, n subjects [3]: 4
- Fasting LDL cholesterol, worst Grade 1, n subjects [3]: 2
- Fasting LDL cholesterol, worst Grade 2, n subjects [3]: 2
- Fasting LDL cholesterol, worst Grade 3, n subjects [3]: 0
- Fasting LDL cholesterol, worst Grade 4, n subjects [3]: 0
- Fasting glucose (serum, high) abnormality, any grade, n subjects [3]: 5
- Fasting glucose (serum, high), worst Grade 1, n subjects [3]: 3
- Fasting glucose (serum, high), worst Grade 2, n subjects [3]: 2
- Fasting glucose (serum, high), worst Grade 3, n subjects [3]: 0
- Fasting glucose (serum, high), worst Grade 4, n subjects [3]: 0
- Fasting laboratory abnormality, worst Grade 1, n subjects [3]: 6
- Fasting laboratory abnormality, worst Grade 2, n subjects [3]: 6
- Fasting laboratory abnormality, worst Grade 3, n subjects [3]: 0
- Fasting laboratory abnormality, worst Grade 4, n subjects [3]: 0
- Fasting total cholesterol abnormality, any grade, n subjects [3]: 5
- Fasting total cholesterol, worst Grade 1, n subjects [3]: 2
- Fasting total cholesterol, worst Grade 2, n subjects [3]: 3
- Fasting total cholesterol, worst Grade 3, n subjects [3]: 0
- Fasting total cholesterol, worst Grade 4, n subjects [3]: 0
- Fasting triglycerides abnormality, any grade, n subjects [3]: 1
- Fasting triglycerides, worst Grade 1, n subjects [3]: 0
- Fasting triglycerides, worst Grade 2, n subjects [3]: 1
- Fasting triglycerides, worst Grade 3, n subjects [3]: 0
- Fasting triglycerides, worst Grade 4, n subjects [3]: 0
- Fasting HDL, mean change from baseline (Week 4, All CVC, EFV): -2.92 mg/dL
- Fasting LDL, mean change from baseline (Week 4, All CVC, EFV): -9.72 mg/dL
- Fasting total cholesterol, mean change from baseline (Week 4, All CVC, EFV): -14 mg/dL
- Fasting triglycerides, mean change from baseline (Week 4, All CVC, EFV): -5 mg/dL
- HOMA-IR, mean change from baseline (Week 4, All CVC, EFV): −0.30
- HbA1c, mean change from baseline (Week 4, All CVC, EFV): −0.03 % Hb
- Fasting HDL, mean change from baseline (Week 4, CVC 100 mg): -3.98 mg/dL
- Fasting LDL, mean change from baseline (Week 4, CVC 100 mg): -10.90 mg/dL
- Fasting total cholesterol, mean change from baseline (Week 4, CVC 100 mg): -16 mg/dL
- Fasting triglycerides, mean change from baseline (Week 4, CVC 100 mg): -8 mg/dL
- HOMA-IR, mean change from baseline (Week 4, CVC 100 mg): 0.11
- HbA1c, mean change from baseline (Week 4, CVC 100 mg): 0.01 % Hb
- Fasting HDL, mean change from baseline (Week 4, CVC 200 mg): -1.84 mg/dL
- Fasting LDL, mean change from baseline (Week 4, CVC 200 mg): -8.46 mg/dL
- Fasting total cholesterol, mean change from baseline (Week 4, CVC 200 mg): -12 mg/dL
- Fasting triglycerides, mean change from baseline (Week 4, CVC 200 mg): -2 mg/dL
- HOMA-IR, mean change from baseline (Week 4, CVC 200 mg): −0.71
- HbA1c, mean change from baseline (Week 4, CVC 200 mg): −0.08 % Hb
- Fasting HDL, mean change from baseline (Week 12, All CVC, EFV): -2.09 mg/dL
- Fasting LDL, mean change from baseline (Week 12, All CVC, EFV): -11.44 mg/dL
- Fasting total cholesterol, mean change from baseline (Week 12, All CVC, EFV): -17 mg/dL
- Fasting triglycerides, mean change from baseline (Week 12, All CVC, EFV): -15 mg/dL
- HOMA-IR, mean change from baseline (Week 12, All CVC, EFV): −0.56
- HbA1c, mean change from baseline (Week 12, All CVC, EFV): −0.06 % Hb
- Fasting HDL, mean change from baseline (Week 12, CVC 100 mg): -2.96 mg/dL
- Fasting LDL, mean change from baseline (Week 12, CVC 100 mg): -11.20 mg/dL
- Fasting total cholesterol, mean change from baseline (Week 12, CVC 100 mg): -17 mg/dL
- Fasting triglycerides, mean change from baseline (Week 12, CVC 100 mg): -16 mg/dL
- HOMA-IR, mean change from baseline (Week 12, CVC 100 mg): −0.59
- HbA1c, mean change from baseline (Week 12, CVC 100 mg): −0.04 % Hb
- Fasting HDL, mean change from baseline (Week 12, CVC 200 mg): -1.22 mg/dL
- Fasting LDL, mean change from baseline (Week 12, CVC 200 mg): -11.69 mg/dL
- Fasting total cholesterol, mean change from baseline (Week 12, CVC 200 mg): -16 mg/dL
- Fasting triglycerides, mean change from baseline (Week 12, CVC 200 mg): -13 mg/dL
- HOMA-IR, mean change from baseline (Week 12, CVC 200 mg): −0.53
- HbA1c, mean change from baseline (Week 12, CVC 200 mg): −0.08 % Hb
- Fasting HDL, mean change from baseline (Week 24, All CVC, EFV): -1.45 mg/dL
- Fasting LDL, mean change from baseline (Week 24, All CVC, EFV): -8.64 mg/dL
- Fasting total cholesterol, mean change from baseline (Week 24, All CVC, EFV): -13 mg/dL
- Fasting triglycerides, mean change from baseline (Week 24, All CVC, EFV): -15 mg/dL
- HOMA-IR, mean change from baseline (Week 24, All CVC, EFV): −0.68
- HbA1c, mean change from baseline (Week 24, All CVC, EFV): 0.06 % Hb
- Fasting HDL, mean change from baseline (Week 24, CVC 100 mg): -2.15 mg/dL
- Fasting LDL, mean change from baseline (Week 24, CVC 100 mg): -10.21 mg/dL
- Fasting total cholesterol, mean change from baseline (Week 24, CVC 100 mg): -14 mg/dL
- Fasting triglycerides, mean change from baseline (Week 24, CVC 100 mg): -8 mg/dL
- HOMA-IR, mean change from baseline (Week 24, CVC 100 mg): −1.42
- HbA1c, mean change from baseline (Week 24, CVC 100 mg): 0.06 % Hb
- Fasting HDL, mean change from baseline (Week 24, CVC 200 mg): -0.71 mg/dL
- Fasting LDL, mean change from baseline (Week 24, CVC 200 mg): -6.93 mg/dL
- Fasting total cholesterol, mean change from baseline (Week 24, CVC 200 mg): -12 mg/dL
- Fasting triglycerides, mean change from baseline (Week 24, CVC 200 mg): -23 mg/dL
- HOMA-IR, mean change from baseline (Week 24, CVC 200 mg): 0.15
- HbA1c, mean change from baseline (Week 24, CVC 200 mg): 0.06 % Hb
- Fasting HDL, mean change from baseline (Week 48, All CVC, EFV): -0.96 mg/dL
- Fasting LDL, mean change from baseline (Week 48, All CVC, EFV): -8.49 mg/dL
- Fasting total cholesterol, mean change from baseline (Week 48, All CVC, EFV): -12 mg/dL
- Fasting triglycerides, mean change from baseline (Week 48, All CVC, EFV): -12 mg/dL
- HOMA-IR, mean change from baseline (Week 48, All CVC, EFV): −0.76
- HbA1c, mean change from baseline (Week 48, All CVC, EFV): 0.10 % Hb
- Fasting HDL, mean change from baseline (Week 48, CVC 100 mg): -1.63 mg/dL
- Fasting LDL, mean change from baseline (Week 48, CVC 100 mg): -11.16 mg/dL
- Fasting total cholesterol, mean change from baseline (Week 48, CVC 100 mg): -14 mg/dL
- Fasting triglycerides, mean change from baseline (Week 48, CVC 100 mg): -9 mg/dL
- HOMA-IR, mean change from baseline (Week 48, CVC 100 mg): −1.56
- HbA1c, mean change from baseline (Week 48, CVC 100 mg): 0.09 % Hb
- Fasting HDL, mean change from baseline (Week 48, CVC 200 mg): -0.21 mg/dL
- Fasting LDL, mean change from baseline (Week 48, CVC 200 mg): -5.20 mg/dL
- Fasting total cholesterol, mean change from baseline (Week 48, CVC 200 mg): -9 mg/dL
- Fasting triglycerides, mean change from baseline (Week 48, CVC 200 mg): -16 mg/dL
- HOMA-IR, mean change from baseline (Week 48, CVC 200 mg): 0.17
- HbA1c, mean change from baseline (Week 48, CVC 200 mg): 0.10 % Hb
- Change in fasting cholesterol (total, LDL, HDL) during treatment (through Week 48): A decrease was observed
